Structures can show the parent of a compound that is named as a salt.
Tests used:
[1] = system: normal mice; test: level of blood glucose in normal mice; type: in vivo, Kunming mouse; details: for Blood glucose 3 d after dosing: 5th administration; for Blood glucose 3 d after dosing / Blood glucose 10 d after dosing: fasting 2 h, X ± S; for Blood glucose 10 d after dosing: 19th administration; for effects in lowering glucose in normal mice: 5 mg/kg
Experimental: 40 male mice with a body weight of 21±1.8 g (Kunming mouse: SPF grade, male, provided by laboratory animal centre of Sichuan Academy of Chinese Medicine Sciences) were grouped into 4 groups randomly, which are control group, 5 mg/kg of the compound of formula I group, 5 mg/kg of the sodium salt of the compound of formula I group, and 25 mg/kg of Glibenclamide (manufactured by Tianjin Pacific Chemical & Pharmaceutical Co., LTD) group. For the control group, distilled water was given, while for other groups, corresponding medicaments were given. The medicament was intragastrically administered in 0.2 ml/10 g of administration volume twice daily. The administration was continued for 19 times. On the 5th time and 19th time and after thoroughly fasting for 2 h, the blood glucose value for each mouse was tested by a Blood Glucose Meter, and the results were recorded as follows: […]

[2] = system: HepG2 cells; test: in vitro glucose consumption in HepG2 cells (glucose oxidase method); type: cell-based; details: for Glucose consumption / Glucose consumption increased: HepG2 cells; for Glucose consumption: 24 h, x ± s, n = 8; for Glucose consumption increased: versus blank control group
Experimental: HepG2 cells with good growth state were selected, and were digested with trypsinase and EDTA (ethylene diamine tetraacetic acid) digestive juice. After digestion was complete, the resulting mixture was formulated with DMEM (Dulbecco's Modified Eagle Medium) having 10% Fetal bovine serum (FBS) into single cell suspension. The cells were seeded into 96 well plates, with 1*10^4 cells per well. Once the cell confluence reached 50%, the medium was changed to high glucose DMEM without serum, starvation cultured for 12 h. The cell supernatant was pipetted, and fresh high glucose DMEM with or without medications was added. The cells were divided into a blank control group, a 20-hydroxy-β-ecdysterone group, and a compound of formula I group. After culturing for 24 h, each group was tested for the change of glucose in the medium by using the glucose oxidase method.

[3] = system: β-TC3 cells; details: cited from earlier work
[4] = system: InsR protein; details: 1×10^−5 mol/L; cited from earlier work
[5] = system: PI3K and GLUT-4 proteins; details: 1×10^−5M, P<0.05; cited from earlier work
[6] = dissolution experiment (solubility in water); type: physicochemical; details: for amount of water necessarily for completely dissolving this product (1 g): 1 g of product; for solubility in water relative to 20-hydroxy-β-ecdysterone: fold of that of 20-hydroxy-β-ecdysterone
[7] = 25 mg/kg intragastrically twice daily, *P<0.05 vs control
[8] = 5 mg/kg intragastrically twice daily
[9] = 5 mg/kg intragastrically twice daily, *P<0.05 vs control

| SMILES | Glucose consumption ([2]; 2 × 10^−7 M) | Glucose consumption increased ([2]; 2 × 10^−7 M) | Glucose consumption ([2]; 2 × 10^−8 M) | Glucose consumption increased ([2]; 2 × 10^−8 M) | Glucose consumption ([2]; 2 × 10^−9 M) | amount of water necessarily for completely dissolving this product (1 g) [6] | solubility in water relative to 20-hydroxy-β-ecdysterone [6] | effects in lowering glucose in normal mice [1] | Blood glucose 3 d after dosing [1, 8] | Blood glucose 10 d after dosing [1, 9] | other results |
| --- | --- | --- | --- | --- | --- | --- | --- | --- | --- | --- | --- |
| COc1ccc(Cl)cc1C(=O)NCCc1ccc(S(=O)(=O)NC(=O)NC2CCCCC2)cc1 [Glibenclamide, reference compound] | – | – | – | – | – | – | – | – | – | – | Blood glucose 3 d after dosing [1, 7]: 9.3 ± 0.9* mmol/L; Blood glucose 10 d after dosing [1, 7]: 9.9 ± 0.9* mmol/L |
| CC(C)(O)CC[C@@H](O)[C@](C)(O)[C@H]1CC[C@@]2(O)C3=CC(=O)[C@@H]4C[C@@H](O)[C@@H](O)C[C@]4(C)[C@H]3CC[C@]12C [20-hydroxy-β-ecdysterone, reference compound] | 1.45 ± 0.28 mM | 0.13 mM | 1.38 ± 0.11 mM | 0.06 mM | 1.30 ± 0.23 mM | – | – | – | – | – | increase of the glucose consumption in HepG2 cells ([2]; concentration 2×10^−7˜2×10^−8 M): below 15%; effect for lowering glucose in HepG2 cells ([2]; concentration 2×10^−9 M): no effect |
| CC(C)(O)CC[C@@H](O)[C@](C)(O)[C@H]1CC[C@@]2(O)C3=CC(=O)[C@@H]4C[C@@H](O)[C@@H](O)C[C@]4(C)[C@H]3CC[C@]12C [ecdysterone] | – | – | – | – | – | – | – | – | – | – | stimulating insulin secretion of β-TC3 cells [3]: does not have the action of stimulating insulin secretion; expression of InsR protein in IR HepG2 cells [4]: significantly increases; expression of PI3K and GLUT-4 proteins in insulin resistant HepG2 cells [5]: increases |
| CC(C)(O)CC[C@H]1OP(=O)(O)O[C@]1(C)[C@H]1CC[C@@]2(O)C3=CC(=O)[C@@H]4C[C@@H](O)[C@@H](O)C[C@]4(C)C3CC[C@]12C (some centres unmarked) [sodium salt of the compound of formula I] | – | – | – | – | – | 2.5 mL | 50 fold | have the effects in lowering glucose | 10.2 ± 1.9 mmol/L | 9.8 ± 1.4* mmol/L | – |
| CC(C)(O)CC[C@H]1OP(=O)(O)O[C@]1(C)[C@H]1CC[C@@]2(O)C3=CC(=O)[C@@H]4C[C@@H](O)[C@@H](O)C[C@]4(C)C3CC[C@]12C (some centres unmarked) [the compound of formula I] | 6.96 ± 0.23 mM | 5.64 mM | 6.51 ± 0.12 mM | 5.19 mM | 6.46 ± 0.19 mM | 12 mL | 10 fold | have the effects in lowering glucose | 10.4 ± 1.7 mmol/L | 9.1 ± 2.3* mmol/L | Glucose consumption increased ([2]; 2 × 10^−9 M): 5.14 mM; increase of the glucose consumption in HepG2 cells ([2]; concentration range 2×10^−7˜2×10^−9 M): above 500% |

Source: patent publication US8822441B2, “Ecdysterone synthesis derivative, preparation method and use thereof” (priority 2010, dated 2014)
